From the supplement of paper PMC10307832

Tests used:
Experiment in all cases: relative viability (nuclei count vs DMSO), 5 days (fraction); higher = more cells survive
LCLC-103H = test system: LCLC-103H
How it was run: (§1)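 Nuclei were stained with Hoechst during a one-step fixation (final 0.05% Triton X-100, 1% formaldehyde, 1 ug/ml Hoechst) carried out 5 days after dosing, then counted on 4× images. The cells, lung cancer lines in 1536-well plates, had been dosed by pin tool the day after seeding with one drug alone or a fixed anchor-drug dose plus five library-drug doses (not always all listed) in √10 steps. Relative viability is the nuclei count in treated wells divided by that in vehicle wells, and each value is the median of duplicate plates.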

PC-14 = test system: PC-14
How it was run: as §1

NCI-H596 = test system: NCI-H596
How it was run: as §1

H3255 = test system: H3255
How it was run: as §1

NCI-H727 = test system: NCI-H727
How it was run: as §1

LU99A = test system: LU99A
How it was run: as §1

NCI-H2228 = test system: NCI-H2228
How it was run: as §1

NCI-H23 = test system: NCI-H23
How it was run: as §1

LC-2-ad = test system: LC-2-ad
How it was run: as §1

NCI-H1563 = test system: NCI-H1563
How it was run: as §1

NCI-H1650 = test system: NCI-H1650
How it was run: as §1

201T = test system: 201T
How it was run: as §1

NCI-H460 = test system: NCI-H460
How it was run: as §1

NCI-H2347 = test system: NCI-H2347
How it was run: as §1

PC-3 [JPC-3] = test system: PC-3 [JPC-3]
How it was run: as §1

A-427 = test system: A-427
How it was run: as §1

LCLC-97TM1 = test system: LCLC-97TM1
How it was run: as §1

HCC-44 = test system: HCC-44
How it was run: as §1

SW 1573 = test system: SW 1573
How it was run: as §1

LK-2 = test system: LK-2
How it was run: as §1

COR-L23 = test system: COR-L23
How it was run: as §1

In the case of `O=c1cc(N2CCOCC2)oc2c(-c3cccc4c3sc3ccccc34)cccc12` + C[C@@H](Oc1cc(-c2cnn(C3CCNCC3)c2)cnc1N)c1c(Cl)ccc(F)c1Cl [Crizotinib] (partner 1 µM), the relative viability (LCLC-103H; first compound 0.01 µM) is reported as 1.06, the relative viability (LCLC-103H; first compound 0.03162 µM) is reported as 0.976 and the relative viability (LCLC-103H; first compound 0.1 µM) is reported as 1.12. The relative viability (LCLC-103H; first compound 0.3162 µM) was 0.958, the relative viability (LCLC-103H; first compound 1 µM) was 1.07 and the relative viability (PC-14; first compound 0.01 µM) was 0.906. It also gave a relative viability (PC-14; first compound 0.03162 µM) of 0.82, a relative viability (PC-14; first compound 0.1 µM) of 0.85 and a relative viability (PC-14; first compound 0.3162 µM) of 0.843. The relative viability (PC-14; first compound 1 µM) was 0.795, the relative viability (NCI-H596; first compound 0.01 µM) was 0.992 and the relative viability (NCI-H596; first compound 0.03162 µM) was 0.997. It also gave a relative viability (NCI-H596; first compound 0.1 µM) of 0.907, a relative viability (NCI-H596; first compound 0.3162 µM) of 0.948 and a relative viability (NCI-H596; first compound 1 µM) of 0.882. It also gave a relative viability (H3255; first compound 0.01 µM) of 0.871, a relative viability (H3255; first compound 0.03162 µM) of 1.05 and a relative viability (H3255; first compound 0.1 µM) of 0.971. It also gave a relative viability (H3255; first compound 0.3162 µM) of 0.926, a relative viability (H3255; first compound 1 µM) of 0.769 and a relative viability (NCI-H727; first compound 0.01 µM) of 0.887. The relative viability (NCI-H727; first compound 0.03162 µM) was 0.893, the relative viability (NCI-H727; first compound 0.1 µM) was 0.751 and the relative viability (NCI-H727; first compound 0.3162 µM) was 0.734. It also gave a relative viability (NCI-H727; first compound 1 µM) of 0.932, a relative viability (LU99A; first compound 0.01 µM) of 0.647 and a relative viability (LU99A; first compound 0.03162 µM) of 0.574. It also gave a relative viability (LU99A; first compound 0.1 µM) of 0.577, a relative viability (LU99A; first compound 0.3162 µM) of 0.535 and a relative viability (LU99A; first compound 1 µM) of 0.573. It also gave a relative viability (NCI-H2228; first compound 0.03162 µM) of 0.479, a relative viability (NCI-H2228; first compound 0.1 µM) of 0.501 and a relative viability (NCI-H2228; first compound 0.3162 µM) of 0.403. For the same molecule, the relative viability (NCI-H2228; first compound 1 µM) was 0.471, the relative viability (NCI-H23; first compound 0.01 µM) was 0.59 and the relative viability (NCI-H23; first compound 0.03162 µM) was 0.586. It also gave a relative viability (NCI-H23; first compound 0.3162 µM) of 0.508, a relative viability (NCI-H23; first compound 1 µM) of 0.506 and a relative viability (LC-2-ad; first compound 0.01 µM) of 0.492. For the same molecule, the relative viability (LC-2-ad; first compound 0.03162 µM) was 0.427, the relative viability (LC-2-ad; first compound 0.1 µM) was 0.487 and the relative viability (LC-2-ad; first compound 0.3162 µM) was 0.397. For the same molecule, the relative viability (LC-2-ad; first compound 1 µM) was 0.537, the relative viability (NCI-H1563; first compound 0.01 µM) was 0.809 and the relative viability (NCI-H1563; first compound 0.03162 µM) was 0.795. It also gave a relative viability (NCI-H1563; first compound 0.1 µM) of 0.848, a relative viability (NCI-H1563; first compound 0.3162 µM) of 0.711 and a relative viability (NCI-H1563; first compound 1 µM) of 0.82. For the same molecule, the relative viability (NCI-H1650; first compound 0.03162 µM) was 0.906, the relative viability (NCI-H1650; first compound 0.1 µM) was 0.872 and the relative viability (NCI-H1650; first compound 0.3162 µM) was 0.826. It also gave a relative viability (NCI-H1650; first compound 1 µM) of 0.921, a relative viability (201T; first compound 0.01 µM) of 1 and a relative viability (201T; first compound 0.03162 µM) of 1.01. For the same molecule, the relative viability (201T; first compound 0.1 µM) was 0.981, the relative viability (201T; first compound 0.3162 µM) was 1.01 and the relative viability (201T; first compound 1 µM) was 1.03. The relative viability (NCI-H460; first compound 0.01 µM) was 0.822, the relative viability (NCI-H460; first compound 0.03162 µM) was 0.99 and the relative viability (NCI-H460; first compound 0.1 µM) was 0.988. It also gave a relative viability (NCI-H460; first compound 0.3162 µM) of 1.1, a relative viability (NCI-H460; first compound 1 µM) of 0.922 and a relative viability (NCI-H2347; first compound 0.01 µM) of 0.805. For the same molecule, the relative viability (NCI-H2347; first compound 0.03162 µM) was 0.661, the relative viability (NCI-H2347; first compound 0.1 µM) was 0.739 and the relative viability (NCI-H2347; first compound 0.3162 µM) was 0.584. For the same molecule, the relative viability (NCI-H2347; first compound 1 µM) was 0.76, the relative viability (PC-3 [JPC-3]; first compound 0.01 µM) was 0.931 and the relative viability (PC-3 [JPC-3]; first compound 0.03162 µM) was 0.903. It also gave a relative viability (PC-3 [JPC-3]; first compound 0.1 µM) of 0.938, a relative viability (PC-3 [JPC-3]; first compound 0.3162 µM) of 0.941 and a relative viability (PC-3 [JPC-3]; first compound 1 µM) of 1.01. It also gave a relative viability (A-427; first compound 0.01 µM) of 0.983, a relative viability (A-427; first compound 0.03162 µM) of 0.851 and a relative viability (A-427; first compound 0.1 µM) of 0.807. It also gave a relative viability (A-427; first compound 0.3162 µM) of 0.787, a relative viability (A-427; first compound 1 µM) of 0.925 and a relative viability (LCLC-97TM1; first compound 0.01 µM) of 0.444. The relative viability (LCLC-97TM1; first compound 0.03162 µM) was 0.339, the relative viability (LCLC-97TM1; first compound 0.3162 µM) was 0.281 and the relative viability (LCLC-97TM1; first compound 1 µM) was 0.39. It also gave a relative viability (HCC-44; first compound 0.01 µM) of 0.862, a relative viability (HCC-44; first compound 0.03162 µM) of 0.811 and a relative viability (HCC-44; first compound 0.1 µM) of 0.814. For the same molecule, the relative viability (HCC-44; first compound 0.3162 µM) was 0.788, the relative viability (HCC-44; first compound 1 µM) was 0.776 and the relative viability (SW 1573; first compound 0.01 µM) was 0.787. It also gave a relative viability (SW 1573; first compound 0.03162 µM) of 0.805, a relative viability (SW 1573; first compound 0.1 µM) of 0.808 and a relative viability (SW 1573; first compound 0.3162 µM) of 0.74. It also gave a relative viability (SW 1573; first compound 1 µM) of 0.752, a relative viability (LK-2; first compound 0.01 µM) of 0.227 and a relative viability (LK-2; first compound 0.03162 µM) of 0.258. The relative viability (LK-2; first compound 0.1 µM) was 0.219, the relative viability (LK-2; first compound 0.3162 µM) was 0.193 and the relative viability (LK-2; first compound 1 µM) was 0.243. It also gave a relative viability (COR-L23; first compound 0.01 µM) of 0.62, a relative viability (COR-L23; first compound 0.03162 µM) of 0.732 and a relative viability (COR-L23; first compound 0.1 µM) of 0.819. The relative viability (COR-L23; first compound 0.3162 µM) was 0.638 and the relative viability (COR-L23; first compound 1 µM) was 0.597.
